Data from US20250018049A1, “COMPOUNDS FOR DEGRADING CYCLIN-DEPENDENT KINASE 2 VIA UBIQUITIN PROTEOSOME PATHWAY” (NIKANG THERAPEUTICS, INC., priority 2020, published 2025).

What was measured:
Format in all cases: cell-based
CDK2 [1] = biological target: T1, CDK2 (Homo sapiens, UniProt P24941); assay: Phospho-Rb HTRF measurement in OVCAR3 cells (inhibition of CDK2); set-up: High-Throughput Measurement of Cellular Endogenous CDK2; endogenous in cells; host or cells: OVCAR3; conditions: pRB(S807/811) assay, 24 h compound treatment
CDK1 = biological target: T2, CDK1 (Homo sapiens, UniProt P06493); assay: Phospho-Rb HTRF measurement in KYSE520 cells (inhibition of CDK1); conditions: CDK2-dependent OVCAR3 vs CDK2-independent but CDK1-dependent KYSE520 cell line
T2 construct: endogenous in cells; host or cells: KYSE520
T2 sequence (P06493 whole entry): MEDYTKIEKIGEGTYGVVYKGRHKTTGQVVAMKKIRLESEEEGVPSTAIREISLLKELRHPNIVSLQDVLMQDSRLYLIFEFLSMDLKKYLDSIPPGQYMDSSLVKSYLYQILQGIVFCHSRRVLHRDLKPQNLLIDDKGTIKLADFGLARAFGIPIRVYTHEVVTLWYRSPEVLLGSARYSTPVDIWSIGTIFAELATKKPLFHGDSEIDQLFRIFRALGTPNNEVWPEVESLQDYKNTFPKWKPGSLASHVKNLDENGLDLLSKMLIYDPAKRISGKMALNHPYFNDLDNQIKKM
T2 sequence (P14635 whole entry partner): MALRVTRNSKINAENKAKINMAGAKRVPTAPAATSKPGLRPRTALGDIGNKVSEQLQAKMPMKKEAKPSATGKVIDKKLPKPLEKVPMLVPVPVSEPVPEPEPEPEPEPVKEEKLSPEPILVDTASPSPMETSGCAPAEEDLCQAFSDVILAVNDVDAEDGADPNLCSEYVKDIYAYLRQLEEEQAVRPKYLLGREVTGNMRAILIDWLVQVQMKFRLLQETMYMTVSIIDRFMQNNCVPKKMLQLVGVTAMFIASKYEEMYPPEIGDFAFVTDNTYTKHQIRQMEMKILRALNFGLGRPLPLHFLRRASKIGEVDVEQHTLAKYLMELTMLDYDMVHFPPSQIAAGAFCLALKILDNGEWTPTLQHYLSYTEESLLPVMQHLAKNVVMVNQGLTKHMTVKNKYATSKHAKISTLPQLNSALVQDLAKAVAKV
Method: Phosphorylation of RB protein at S780 and S807/811 were measured using HTRF phospho-RB cellular kits (Cat #64RBS780PEG and 64RBS807PEG) from Cisbio.
On Day 1, OVCAR3 or KYSE520 cells were seeded into 96-well tissue-culture treated plates at 20,000 cells/well in 200 μL and incubated overnight at 37° C. in CO2 atmosphere. On Day 2, the cells were treated with test compounds at concentrations from 0.3 to 10,000 nM using HP D300 digital dispenser. Twenty-four hours after compound treatment, cell culture media was removed by flicking the plate and tapping the plate against clean paper towel. Immediately 30 μL 1× lysis buffer was supplemented from the kit and the plate was incubated at room temperature on shaker for 30 min. After homogenization by pipetting up and down, 8 μL cell lysate from 96-well cell culture plate was transferred to 384-well small volume white detection plate. 2 μL premixed detection solution was added and the plate was covered with sealer. To prepare the detection solution, d2 conjugated-phospho-RB antibody and Eu-cryptate conjugated phosphor-RB antibody were diluted into detection buffer following manufacturer's instruction. Detection plates were incubated for 4 h at room temperature and read on ClarioStar (BMG Labtech) in TR-FRET mode (665 nM and 620 nM). The TR-FRET ratio (665 nM/620 nM) was plotted against the compound concentration and normalized to DMSO controls. Half maximal inhibition concentration (IC50) values are calculated with a four-parameter logistic fit using GraphPad Prism (version 8; La Jolla, CA).
Compound 5 was not tested in the KYSE520 cell line.

CDK2 [2] = biological target: T1, CDK2; assay: NanoBRET CDK2 engagement assay; set-up: expressed in transfected cells; conditions: OVCAR3 cells with stable CDK2-Luciferase vector, 24 hours treatment
Procedure, shortened: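 OVCAR3 cells stably expressing CDK2-luciferase, in Opti-MEM with 1% FBS, treated 24 h at 37° C with compound from 3 μM in ½-log steps to 0.3 nM; NanoBRET tracer present for final 2 h. Donor/acceptor emission read; engagement normalized to DMSO as 100% signal, IC50 by curve fit.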

CDK2 [3] = biological target: T1, CDK2; assay: CDK2 HTRF assay (cellular endogenous CDK2 level); set-up: High-Throughput Measurement of Cellular Endogenous CDK2; endogenous in cells; host or cells: OVCAR3; conditions: OVCAR-3; OVCAR3 cells, 24 hours, 0.3 to 10,000 nM; read-out: max degradation of CDK2
Procedure, shortened: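 OVCAR3 cells treated 24 h with compounds at 0.3–10,000 nM, then lysed and total CDK2 measured by HTRF using d2- and Eu-cryptate-labelled CDK2 antibodies (TR-FRET 665/620 nm ratio). Signal normalized to DMSO controls; DC50 from four-parameter logistic fit.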

IC50 (CDK2 [1]) [nM] | times more potent pRb inhibition in OVCAR3 than in KYSE520 (CDK1) [times] | IC50 (CDK2 [2]) [nM] | Dmax (CDK2 [3]) [%] | Structure (SMILES)
267 | ~20.5 | 214 |  | Cn1c(=O)n(C2CCC(=O)NC2=O)c2cccc(CNCCOc3cccc(S(=O)(=O)N4CCC(Nc5ncc6ccc(=O)n(C7CCCC7)c6n5)CC4)c3)c21 (centres unmarked) [Compound 41, 3-(4-(((2-(3-((4-((8-cyclopentyl-7-oxo-7,8-dihydropyrido[2,3-d]pyrimidin-2-yl)amino)-piperidin-1-yl)sulfonyl)phenoxy)ethyl)amino)-methyl)-3-methyl-2-oxo-2,3-dihydro-1H-benzo[d]imidazol-1-yl)piperidine-2,6-dione]
52.9 | ~21 | 176 | 35 to 90 | O=C1CCC(N2Cc3cc(N4CC(N5CCC(Oc6cccc(S(=O)(=O)N7CCC(Nc8ncc9ccc(=O)n(C%10CCCC%10)c9n8)CC7)c6)CC5)C4)ccc3C2=O)C(=O)N1 (centres unmarked) [Compound 28, 3-(5-(3-(4-(3-((4-((8-cyclopentyl-7-oxo-7,8-dihydropyrido[2,3-d]pyrimidin-2-yl)amino)-piperidin-1-yl)sulfonyl)phenoxy)piperidin-1-yl)-azetidin-1-yl)-1-oxoisoindolin-2-yl)piperidine-2,6-dione]
422 | ~11 | 1170 |  | O=C1CCC(N2C(=O)c3cccc(NCCOCCOCCOCCNS(=O)(=O)N4CCC(Nc5ncc6ccc(=O)n(C7CCCC7)c6n5)CC4)c3C2=O)C(=O)N1 (centres unmarked) [Compound 21, 4-((8-cyclopentyl-7-oxo-7,8-dihydropyrido[2,3-d]pyrimidin-2-yl)amino)-N-(2-(2-(2-(2-((2-(2,6-dioxopiperidin-3-yl)-1,3-dioxoisoindolin-4-yl)amino)ethoxy)ethoxy)ethoxy)ethyl) piperidine-1-sulfonamide]
50.3 | ~10.5 | 86 | 35 to 90 | O=C1CCC(N2Cc3cc(N4CCC(CN5CCC(c6cccc(S(=O)(=O)N7CCC(Nc8ncc9ccc(=O)n(C%10CCCC%10)c9n8)CC7)c6)CC5)CC4)ccc3C2=O)C(=O)N1 (centres unmarked) [Compound 34, 3-(5-(4-((4-(3-((4-((8-cyclopentyl-7-oxo-7,8-dihydropyrido[2,3-d]pyrimidin-2-yl)amino)-piperidin-1-yl)sulfonyl)phenyl)piperidin-1-yl)-methyl)piperidin-1-yl)-1-oxoisoindolin-2-yl)-piperidine-2,6-dione]
